The target in one test is FKBP12 (Homo sapiens, UniProt P62942). Briefly: FKBP12 Rotamase Inhibition Assay. The test is classed as biochemical. The note with it: for Ki: apparent Ki, 4° C., substrate succinyl-Ala-Leu-Pro-Phe-p-nitroanilide; for inhibition at 10 µM: read-out: % inhib. at 10 μM. The method, then: FKBP12 Rotamase Inhibition Assay
The rotamase activity of FKBP-12 was measured by an adaptation of the assay described by Kofron et al. (Biochemistry, 30, pp. 6127-6134 (1991)). The assay was carried out at 4° C. with 1 mg chymotrypsin/mL of assay with succinyl-Ala-Leu-Pro-Phe-p-nitroanilide as the substrate. Chymotrypsin rapidly hydrolyzes the peptide bond on the C-terminal side of the Phe of the trans form of the peptide and releases the chromogenic p-nitroaniline. The rate of the reaction is controlled by the rate of conversion of the cis form of the peptide to the trans-form, the reaction catalyzed by FKBP12. The apparent Ki values for inhibition of the rotamase activity were determined by measuring decreases in the first order rate constant of the reaction catalyzed by FKBP12 as a function of the concentrations of the compounds described herein. Ki is the concentration of the compound that causes 50 percent inhibition of rotamase activity which is indicative of neurite outgrowth activity.

The conditions of test [1]: in vitro and in vivo; cited from earlier work.
A further test concerns HIV-infected cells. The settings on record: cited from earlier work.
The mark [2] stands for this setting: Table 2, 1 μM (values marked *), read-out: % inhib. at 1 μM*.
The mark [3] stands for this setting: Table 1, 1 μM (values marked *), read-out: % inhib. at 1 μM*.
Setting [4] is: Table 3, 1 μM, read-out: % rotamase inhib. at 1 μM.
The mark [5] stands for this setting: Table 4, 1 μM, read-out: % rotamase inhib. at 1 μM.

Structures are written as SMILES. Where two headings read alike, the source gives them in different places.

FKBP12, sequence (P62942 whole entry, species assumed): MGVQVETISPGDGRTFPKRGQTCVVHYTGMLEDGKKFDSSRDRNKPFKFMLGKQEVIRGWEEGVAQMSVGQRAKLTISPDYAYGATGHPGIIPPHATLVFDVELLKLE

Consider `COc1cc(C(F)(F)C(=O)N2CCC[C@H]2COC(=O)N(CCCCc2ccccc2)CCCCc2cccnc2)cc(OC)c1OC` [Example 22, N-(3,4,5-Trimethoxyphenyl)-difluoroacetyl-L-pyrrolidinylmethyl-[N',N'-4-(3-pyridyl)butyl-4-phenylbutylamino]carbamate], for which, at FKBP12 (setting [2]), the inhibition at 1 µM amounted to 83%. Besides, the Ki at FKBP12 (Table 2) turned out to be 271 nM.

Regarding `COc1cc(C(F)(F)C(=O)N2CCC[C@H]2COC(=O)N(CCCc2ccccc2)CCCc2cccnc2)cc(OC)c1OC` [Example 23, N-(3,4,5-Trimethoxyphenyl)-difluoroacetyl-L-pyrrolidinylmethyl-[N',N'-3-(3-pyridyl)propyl-3-phenylpropylamino]carbamate], on FKBP12 (Table 2), the inhibition at 10 µM amounted to 98% and the Ki amounted to 113 nM.

As to `COc1cc(C(F)(F)C(=O)N2CCC[C@H]2COC(=O)N(Cc2ccccc2)Cc2ccccc2)cc(OC)c1OC` [Example 24, N-(3,4,5-Trimethoxyphenyl)-difluoroacetyl-L-pyrrolidinylmethyl-[N',N'-dibenzylamino]carbamate], on FKBP12 (setting [3]), the inhibition at 1 µM was determined as 34%.

`COc1cc(C(F)(F)C(=O)N2CCC[C@H]2COC(=O)N(CCc2ccccc2)CCc2c[nH]c3ccccc23)cc(OC)c1OC` [Example 25, N-(3,4,5-Trimethoxyphenyl)-difluoroacetyl-L-pyrrolidinylmethyi-[N',N'-2-(3-indolyl)ethyl-2-phenylethylamino]carbamate]: the inhibition at 1 µM on FKBP12 (setting [3]) came to 11%.

As for `COc1cc(C(F)(F)C(=O)N2CCC[C@H]2COC(=O)N(CCCCc2ccccc2)CCCc2cccnc2)cc(OC)c1OC` [Example 26, N-(3,4,5-Trimethoxyphenyl)-difluoroacetyl-L-pyrrolidinylmethyl-[N',N'-3-(3-pyridyl)propyl-4-phenylbutylamino]carbamate], at FKBP12 (Table 2), the inhibition at 10 µM is 99% and the Ki amounted to 158 nM.

Consider `COc1cc(C(F)(F)C(=O)N2CCC[C@H]2COC(=O)N(CCCc2cccnc2)CCc2ccccc2)cc(OC)c1OC` [Example 27, N-(3,4,5-Trimethoxyphenyl)-difluoroacetyl-L-pyrrolidinylmethyl-[N',N'-3-(3-pyridyl)propyl-2-phenylethylamino]carbamate], for which, at FKBP12 (Table 2), the inhibition at 10 µM worked out at 97% and the Ki was found to be 234 nM.

As to `COc1cc(C(F)(F)C(=O)N2CCC[C@H]2COC(=O)N(CCCc2cccnc2)Cc2ccccc2)cc(OC)c1OC` [Example 28, N-(3,4,5-Trimethoxyphenyl)-difluoroacetyl-L-pyrrolidinylmethyl-[N',N'-3-(3-pyridyl)propyl-benzylamino]carbamate], on FKBP12 (Table 2), the inhibition at 10 µM is 99% and the Ki was 577 nM.

On to `COc1cc(C(F)(F)C(=O)N2CCC[C@H]2COC(=O)N(CCCCc2cccnc2)CCCc2ccccc2)cc(OC)c1OC` [Example 29, N-(3,4,5-Trimethoxyphenyl)-difluoroacetyl-L-pyrrolidinylmethyl-[N',N'-4-(3-pyridyl)butyl-3-phenylpropylamino]carbamate], for which the inhibition at 1 µM at FKBP12 (setting [2]) is 80%.

Regarding `COc1cc(C(F)(F)C(=O)N2CCC[C@H]2COC(=O)N(CCCCc2cccnc2)CCc2ccccc2)cc(OC)c1OC` [Example 30, N-(3,4,5-Trimethoxyphenyl)-difluoroacetyl-L-pyrrolidinylmethyl-[N',N'-4-(3-pyridyl)butyl-2-phenylethylamino]carbamate], on FKBP12 (Table 2), the inhibition at 10 µM came to 97%.

In the case of `COc1cc(C(F)(F)C(=O)N2CCC[C@H]2COC(=O)N(CCCCc2cccnc2)Cc2ccccc2)cc(OC)c1OC` [Example 31, N-(3,4,5-Trimethoxyphenyl)-difluoroacetyl-L-pyrrolidinylmethyl-[N',N'-4-(3-pyridyl)butyl-benzylamino]carbamate], the inhibition at 1 µM on FKBP12 (setting [2]) worked out at 63%. Besides, on FKBP12 (Table 2), the Ki amounted to 686 nM.

As to `COc1cccc(CCN(CCCc2cccnc2)C(=O)OC[C@@H]2CCCN2C(=O)C(F)(F)c2cc(OC)c(OC)c(OC)c2)c1` [Example 32, N-(3,4,5-Trimethoxyphenyl)-difluoroacetyl-L-pyrrolidinylmethyl-[N',N'-3-(3-pyridyl)propyl-2-(3-methoxyphenyl)ethylamino]carbamate], the inhibition at 1 µM on FKBP12 (setting [4]) stood at 93%.

`COc1ccc(CCN(CCCc2cccnc2)C(=O)OC[C@@H]2CCCN2C(=O)C(F)(F)c2cc(OC)c(OC)c(OC)c2)cc1OC` [Example 33]: at FKBP12 (setting [4]), the inhibition at 1 µM was determined as 96%.

Turning to `COc1cc(C(F)(F)C(=O)N2CCC[C@H]2COC(=O)N(CCCc2cccnc2)CCc2cccc(C(F)(F)F)c2)cc(OC)c1OC` [Example 34, N-(3,4,5-Trimethoxyphenyl)-difluoroacetyl-L-pyrrolidinylmethyl-[N',N'-3-(3-pyridyl)propyl-2-(3-trifluoromethylphenyl)ethylamino]carbamate], on FKBP12 (setting [4]), the inhibition at 1 µM stood at 96%.

Regarding `COc1cc(C(F)(F)C(=O)N2CCC[C@H]2COC(=O)N(CCCc2ccc(C(=O)O)cc2)CCCc2cccnc2)cc(OC)c1OC` [Example 35, N-(3,4,5-Trimethoxyphenyl)-difluoroacetyl-L-pyrrolidinylmethyl-[N',N'-3-(3-pyridyl)propyl-3-(4-carboxyphenyl)propylamino]carbamate], on FKBP12 (setting [4]), the inhibition at 1 µM was found to be 94%.

As to `COc1cc(C(F)(F)C(=O)N2CCC[C@H]2COC(=O)N(CCCc2ccc(C(=O)OCc3ccccc3)cc2)CCCc2cccnc2)cc(OC)c1OC` [Example 36, N-(3,4,5-Trimethoxyphenyl)-difluoroacetyl-L-pyrrolidinylmethyl-[N',N'-3-(3-pyridyl)propyl-3-(4-benzyloxycarbonylphenyl)propylamino]carbamate], the inhibition at 1 µM at FKBP12 (setting [4]) was 77%.

For the molecule `COc1cccc(CCCN(CCCc2cccnc2)C(=O)OC[C@@H]2CCCN2C(=O)C(F)(F)c2cc(OC)c(OC)c(OC)c2)c1` [Example 37, N-(3,4,5-Trimethoxyphenyl)-difluoroacetyl-L-pyrrolidinylmethyl-[N',N'-3-(3-pyridyl)propyl-3-(3-methoxyphenyl)propylamino]carbamate], the inhibition at 1 µM on FKBP12 (setting [4]) is 93%.

Consider `COc1ccc(CCCN(CCCc2cccnc2)C(=O)OC[C@@H]2CCCN2C(=O)C(F)(F)c2cc(OC)c(OC)c(OC)c2)cc1` [Example 38, N-(3,4,5-Trimethoxyphenyl)-difluoroacetyl-L-pyrrolidinylmethyl-[N',N'-3-(3-pyridyl)propyl-3-(4-methoxyphenyl)propylamino]carbamate], for which the inhibition at 1 µM at FKBP12 (setting [4]) was determined as 95%.

For `COc1cc(CCCN(CCCc2cccnc2)C(=O)OC[C@@H]2CCCN2C(=O)C(F)(F)c2cc(OC)c(OC)c(OC)c2)cc(OC)c1OC` [Example 39, N-(3,4,5-Trimethoxyphenyl)-difluoroacetyl-L-pyrrolidinylmethyl-[N',N'-3-(3-pyridyl)propyl-3-(3,4,5-trimethoxyphenyl)propylamino]carbamate], the inhibition at 1 µM at FKBP12 (setting [4]) stood at 92%.

Consider `COc1ccc(CCCCN(CCCc2cccnc2)C(=O)OC[C@@H]2CCCN2C(=O)C(F)(F)c2cc(OC)c(OC)c(OC)c2)cc1OC` [Example 40, N-(3,4,5-Trimethoxyphenyl)-difluoroacetyl-L-pyrrolidinylmethyl-[N',N'-3-(3-pyridyl)propyl-4-(3,4-dimethoxyphenyl)butylamino]carbamate], for which the inhibition at 1 µM on FKBP12 (setting [4]) was 98%.

With `COc1cc(C(F)(F)C(=O)N2CCCC[C@H]2CCC(=O)N(CCCc2ccccc2)CCCc2cccnc2)cc(OC)c1OC` [Example 44, N,N-(3-Phenylpropyl)-3-(3-pyridyl)propyl-2-[(S)-N'-(3,4,5-Trimethoxyphenyl)-difluoroacetyl-2-piperidinyl]propionamide], the inhibition at 1 µM at FKBP12 (setting [5]) came to 0%.

For the molecule `COc1cc(C(F)(F)C(=O)N2CCC[C@H]2CCC(=O)N(CCCc2ccccc2)CCCc2cccnc2)cc(OC)c1OC` [Example 45, N,N-(3-Phenylpropyl)-3-(3-pyridyl)propyl-2-[(S)-N'-(3,4,5-Trimethoxyphenyl)-difluoroacetyl-2-pyrrolidinyl]propionamide], the inhibition at 1 µM on FKBP12 (setting [5]) stood at 42%.

With `C=CC[C@@H]1/C=C(\C)C[C@H](C)C[C@H](OC)[C@H]2O[C@@](O)(C(=O)C(=O)N3CCCC[C@H]3C(=O)O[C@H](/C(C)=C/[C@@H]3CC[C@@H](O)[C@H](OC)C3)[C@H](C)[C@@H](O)CC1=O)[C@H](C)C[C@@H]2OC` [FK506], the neurotrophic properties result in test [1] was “possess neurotrophic properties in vitro and in vivo”. The “inhibition of growth of HIV-infected cells” value with HIV-infected cells was “inhibits the growth of HIV-infected cells”.
